Experimental findings from patent US11992012B2, “Diaminotriazine compounds” (BASF SE, priority 2018, dated 2024) are described below.

What all share (type): in vivo
The test system of assay [1] is Amaranthus retroflexus. Put plainly: greenhouse pre-emergence herbicidal test. The conditions noted are these: 250 g/ha, scale 0 to 100. In short, it runs like this: (§1)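 Seeds sown in loamy sand (~3.0% humus); compounds suspended or emulsified in water, sprayed directly after sowing, pots covered until rooting. Kept at 10-25° C. or 20-35° C. by species for 2 to 4 weeks. Damage scored visually 0-100 (100 = no emergence or complete aerial destruction).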

Assay [2] concerns Abutilon theophrasti. Nature of the assay: greenhouse post-emergence herbicidal test. The conditions noted are these: scale 0 to 100. The text has this:
(§2) The culture containers used were plastic flowerpots containing loamy sand with approximately 3.0% of humus as the substrate. The seeds of the test plants were sown separately for each species.
(§3) For the post-emergence treatment, the test plants were first grown to a height of 3 to 15 cm, depending on the plant habit, and only then treated with the active ingredients which had been suspended or emulsified in water. For this purpose, the test plants were either sown directly and grown in the same containers, or they were first grown separately as seedlings and transplanted into the test containers a few days prior to treatment.
(§4) Depending on the species, the plants were kept at 10-25° C. or 20-35° C., respectively.
(§5) The test period extended over 2 to 4 weeks. During this time, the plants were tended, and their response to the individual treatments was evaluated.
(§6) Evaluation was carried out using a scale from 0 to 100. 100 means no emergence of the plants, or complete destruction of at least the aerial moieties, and 0 means no damage, or normal course of growth. A moderate herbicidal activity is given at values of at least 60, a good herbicidal activity is given at values of at least 70, and a very good herbicidal activity is given at values of at least 85.

For assay [3], the system named is Amaranthus retroflexus. Nature of the assay: greenhouse post-emergence herbicidal test. Particulars: 250 g/ha, scale 0 to 100.
Excerpt: as §2, §3, §4, §5, §6

The next assay concerns Alopercurus myosuroides. Put plainly: greenhouse pre-emergence herbicidal test. The conditions noted are these: 250 g/ha, scale 0 to 100. A digest of the protocol:
as §1

Assay [4] concerns Abutilon theophrasti. Put plainly: greenhouse pre-emergence herbicidal test. Particulars: 250 g/ha, scale 0 to 100. In short, it runs like this: (§7)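 Compounds suspended or emulsified in water were sprayed onto loamy sand (about 3.0% humus) right after sowing; pots were hooded until rooting. Damage was scored on a 0–100 scale (100 = no emergence or complete aerial destruction, 0 = normal growth) after 2 to 4 weeks.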

The next assay has as its system Setaria faberi. Nature of the assay: greenhouse pre-emergence herbicidal test. Particulars: 250 g/ha, scale 0 to 100. A digest of the protocol:
as §7

The test system of assay [5] is Echinocloa crus-galli. Nature of the assay: greenhouse pre-emergence herbicidal test. Particulars: 250 g/ha, scale 0 to 100. A digest of the protocol:
as §1

The subject of the next assay is Apera spica-venti. Put plainly: greenhouse pre-emergence herbicidal test. Particulars: 250 g/ha, scale 0 to 100. A digest of the protocol: as §1
The test system of assay [6] is Echinocloa crus-galli. Nature of the assay: greenhouse post-emergence herbicidal test. Particulars: 125 g/ha, scale 0 to 100.
Excerpt: as §2, §3, §4, §5, §6

Another assay has as its system Setaria viridis. Nature of the assay: greenhouse post-emergence herbicidal test. The conditions noted are these: 125 g/ha, scale 0 to 100.
Excerpt: as §2, §3, §4, §5, §6

As to `CC(C)(F)c1nc(N)nc(Nc2c(F)cccc2OCc2ccsc2C#N)n1` [Example 121], the values for the herbicidal activity with Amaranthus retroflexus [1], with Abutilon theophrasti [2] (250 g/ha) and in the assay on Amaranthus retroflexus [3] were 80%, 100% and 100%, respectively.

Regarding `CC(C)(F)c1nc(N)nc(Nc2c(Cl)cccc2OCc2ccccc2)n1` [Example 85], the values for the herbicidal activity in the assay on Alopercurus myosuroides, in the assay with Abutilon theophrasti [4] and with Setaria faberi were 70%, 90% and 70%, respectively.

For `CC(C)(F)c1nc(N)nc(Nc2c(F)c(F)cc(Cl)c2OCc2ccccc2)n1` [Example 234], the figures for the herbicidal activity with Alopercurus myosuroides, in the assay with Echinocloa crus-galli [5] and in the assay on Abutilon theophrasti [4] were 90%, 100% and 100%, respectively.

On to `Cc1cc(COc2cccc(F)c2Nc2nc(N)nc(C(C)(C)F)n2)c(C)s1` [Example 125], for which the values for the herbicidal activity in the assay with Apera spica-venti and with Echinocloa crus-galli [5] were 85% and 100%, respectively.

Turning to `COc1ccccc1COc1c(F)cc(F)c(F)c1Nc1nc(N)nc(C(C)(C)OC)n1` [Example 214], the herbicidal activity in the assay on Alopercurus myosuroides is reported as 98%; in the assay on Abutilon theophrasti [4] it was 100%; in the assay with Setaria faberi, 90%.

Consider `CC(C)CC(F)c1nc(N)nc(Nc2c(F)cccc2OCc2ccccc2)n1` (stereo not shown) [Example 233], for which the herbicidal activity in the assay with Alopercurus myosuroides stood at 80%; with Echinocloa crus-galli [5], 95%; with Abutilon theophrasti [4] it was 75%.

Consider `CC(C)(F)c1nc(N)nc(Nc2c(F)cccc2OCc2cccc(OC(F)(F)F)c2)n1` [Example 136], for which the herbicidal activity with Apera spica-venti was 80%; with Echinocloa crus-galli [5] it was 85%; with Setaria faberi, 80%.

For `Nc1nc(Nc2c(F)c(F)cc(F)c2OCc2ccccc2)nc(C2(F)CCCC2)n1` [Example 199], the herbicidal activity with Alopercurus myosuroides, in the assay on Echinocloa crus-galli [5] and in the assay with Abutilon theophrasti [4] was 100% in each case.

For the molecule `CC(C)(F)c1nc(N)nc(Nc2c(F)c(F)cc(F)c2OCc2c(F)cccc2F)n1` [Example 165], the herbicidal activity in the assay with Alopercurus myosuroides, in the assay with Echinocloa crus-galli [5] and in the assay on Abutilon theophrasti [4] was 100% in each case.

`COC(C)(C)c1nc(N)nc(Nc2c(F)cccc2OC(F)(F)c2cccc(F)c2)n1` [Example 131]: the figures for the herbicidal activity with Amaranthus retroflexus [1], in the assay with Abutilon theophrasti [4] and in the assay with Setaria faberi were 85%, 90% and 90%, respectively.

Turning to `CC(C)(F)c1nc(N)nc(Nc2c(C#N)cccc2OCc2ccccc2)n1` [Example 128], the herbicidal activity in the assay with Amaranthus retroflexus [1] is on record as 100%; in the assay with Abutilon theophrasti [4] it was 90%; in the assay with Setaria faberi it was 90%.

As to `CC(C)(F)c1nc(N)nc(Nc2c(F)c(F)cc(F)c2OCc2cccc(F)c2)n1` [Example 204], the herbicidal activity in the assay with Alopercurus myosuroides, with Echinocloa crus-galli [5], with Abutilon theophrasti [4] and with Setaria faberi was 100% in each case.

In the case of `Cc1cscc1COc1cccc(F)c1Nc1nc(N)nc(C(C)(C)F)n1` [Example 111], the herbicidal activity is on record as 80% with Apera spica-venti, 85% in the assay with Echinocloa crus-galli [5], 100% in the assay with Abutilon theophrasti [2] (250 g/ha) and 100% in the assay on Amaranthus retroflexus [3].

As to `CC(C)(F)c1nc(N)nc(Nc2c(F)cccc2OCc2ccccc2[N+](=O)[O-])n1` [Example 28], the figures for the herbicidal activity in the assay on Abutilon theophrasti [2] (125 g/ha), in the assay with Echinocloa crus-galli [6] and in the assay with Setaria viridis were 75%, 85% and 75%, respectively.

In the case of `CC(C)(F)c1nc(N)nc(Nc2c(F)cccc2OCc2cccc(OCC(F)(F)F)c2)n1` [Example 134], the herbicidal activity in the assay with Apera spica-venti was determined as 95%; in the assay with Echinocloa crus-galli [5] it was 90%; in the assay on Setaria faberi, 90%.

As to `CCc1ccc(COc2c(F)cc(F)c(F)c2Nc2nc(N)nc(C(C)(C)F)n2)cc1` [Example 216], the herbicidal activity was 98% in the assay with Alopercurus myosuroides, 100% with Abutilon theophrasti [4] and 100% with Setaria faberi.

On to `CC(C)(F)c1nc(N)nc(Nc2c(F)cc(F)c(F)c2OCc2ccccc2)n1` [Example 188], for which the herbicidal activity in the assay with Alopercurus myosuroides, with Echinocloa crus-galli [5] and with Abutilon theophrasti [4] was 100% throughout.

With `Cc1ccc(COc2c(F)cc(F)c(F)c2Nc2nc(N)nc(C(C)F)n2)cc1` (stereo not shown) [Example 231], the herbicidal activity with Alopercurus myosuroides, in the assay on Echinocloa crus-galli [5] and with Abutilon theophrasti [4] was 98% throughout.

Consider `COc1ccccc1COc1cccc(F)c1Nc1nc(N)nc(C(C)(C)F)n1` [Example 100], for which the herbicidal activity in the assay with Amaranthus retroflexus [1] came out at 100%; with Echinocloa crus-galli [5], 100%; in the assay on Abutilon theophrasti [4] it was 80%.

For the molecule `COC(C)c1nc(N)nc(Nc2c(F)c(F)cc(F)c2OCc2cccc(Cl)c2)n1` (stereo not shown) [Example 244], the herbicidal activity is given as 75% in the assay with Amaranthus retroflexus [1], 85% with Abutilon theophrasti [4] and 75% in the assay with Setaria faberi.

As to `Cc1ccccc1COc1c(F)cc(F)c(F)c1Nc1nc(N)nc(C(C)F)n1` (stereo not shown) [Example 229], the herbicidal activity in the assay on Alopercurus myosuroides, with Echinocloa crus-galli [5] and with Abutilon theophrasti [4] was 100% in each case.

As for `COC(C)(C)c1nc(N)nc(Nc2c(F)c(F)cc(F)c2OCc2ccc(F)cc2)n1` [Example 250], the herbicidal activity with Amaranthus retroflexus [1], in the assay on Echinocloa crus-galli [5] and in the assay on Abutilon theophrasti [4] was 100% each time.

In the case of `CC(C)(F)c1nc(N)nc(Nc2c(F)cccc2OCc2ncco2)n1` [Example 70], the herbicidal activity in the assay on Amaranthus retroflexus [1], in the assay with Echinocloa crus-galli [5] and in the assay on Abutilon theophrasti [4] was 100% each time.

With `CC(C)(F)c1nc(N)nc(Nc2c(F)ccc(F)c2OCc2c(F)cccc2F)n1` [Example 167], the herbicidal activity in the assay with Alopercurus myosuroides, in the assay with Abutilon theophrasti [4] and with Setaria faberi was 100% throughout.

In the case of `CC(C)(F)c1nc(N)nc(Nc2c(F)c(F)cc(F)c2OCc2ccccc2Cl)n1` [Example 206], the herbicidal activity with Alopercurus myosuroides, with Echinocloa crus-galli [5], in the assay on Abutilon theophrasti [4] and with Setaria faberi was 100% each time.

Take `CC(C)(F)c1nc(N)nc(Nc2c(F)cccc2OCc2cc(Cl)sc2Cl)n1` [Example 112]: the herbicidal activity with Apera spica-venti worked out at 80%; in the assay with Echinocloa crus-galli [5], 80%; in the assay on Abutilon theophrasti [2] (250 g/ha), 100%; in the assay on Amaranthus retroflexus [3], 100%.

`COC(C)(C)c1nc(N)nc(Nc2c(F)c(F)cc(F)c2OCc2ccc(C)cc2)n1` [Example 228]: the values for the herbicidal activity with Alopercurus myosuroides, with Echinocloa crus-galli [5] and in the assay with Abutilon theophrasti [4] were 100%, 90% and 100%, respectively.

For the molecule `CC(C)(F)c1nc(N)nc(Nc2c(F)cccc2OCc2cc(F)cc(F)c2)n1` [Example 43], the herbicidal activity in the assay with Amaranthus retroflexus [1], in the assay with Echinocloa crus-galli [5] and in the assay on Abutilon theophrasti [4] was 100% each time.

Consider `COC(C)(C)c1nc(N)nc(Nc2c(F)c(F)cc(F)c2OCc2ccccc2C)n1` [Example 226], for which the results for the herbicidal activity in the assay with Alopercurus myosuroides, in the assay on Echinocloa crus-galli [5] and in the assay with Abutilon theophrasti [4] were 100%, 100% and 90%, respectively.

For the molecule `CC(C)(F)c1nc(N)nc(Nc2c(F)c(F)c(F)c(F)c2OCc2ccccc2)n1` [Example 236], the herbicidal activity is 95% in the assay with Alopercurus myosuroides, 100% with Echinocloa crus-galli [5] and 100% in the assay on Abutilon theophrasti [4].

With `COC(C)(C)c1nc(N)nc(Nc2c(F)c(F)cc(F)c2OCc2cccc(Cl)c2)n1` [Example 252], the herbicidal activity stood at 95% in the assay with Amaranthus retroflexus [1], 100% in the assay on Abutilon theophrasti [4] and 100% with Setaria faberi.

Take `Cc1ccccc1COc1cccc(F)c1Nc1nc(N)nc(C(C)(C)F)n1` [Example 30]: the herbicidal activity in the assay on Amaranthus retroflexus [1], with Echinocloa crus-galli [5], in the assay on Abutilon theophrasti [4] and with Setaria faberi was 100% throughout.

With `COc1cccc(COc2c(F)ccc(F)c2Nc2nc(N)nc(C(C)(C)F)n2)c1` [Example 139], the herbicidal activity with Amaranthus retroflexus [1], in the assay with Echinocloa crus-galli [5], with Abutilon theophrasti [4] and in the assay with Setaria faberi was 100% throughout.

For the molecule `CCC(F)c1nc(N)nc(Nc2c(F)cccc2OCc2ccccc2)n1` (stereo not shown) [Example 35], the herbicidal activity in the assay on Amaranthus retroflexus [1], in the assay with Echinocloa crus-galli [5], with Abutilon theophrasti [4] and in the assay on Setaria faberi was 100% in each case.

As for `CC(C)(F)c1nc(N)nc(Nc2c(F)cccc2OCc2ccsc2)n1` [Example 22], the herbicidal activity in the assay with Amaranthus retroflexus [1], with Echinocloa crus-galli [5], in the assay on Abutilon theophrasti [4] and in the assay on Setaria faberi was 100% in each case.
